Reference: patent US8293768B2, “Organic compounds” (Novartis AG, priority 2006, dated 2012)

Tests used:
[1] = target: T1, stearoyl-CoA desaturase (SCD1) (Mus musculus, UniProt P13516); experiment: SCD microsomal assay: release of 3H2O from [9,10-3H]stearoyl-CoA in mouse liver microsomes; assay type: biochemical; conditions: 15 min incubation at 25° C.
T1 construct: Reactions are started by adding 50 μL of microsomes (1.25 mg/mL); from tissue; host or cells: liver microsomes of male ICR outbred mice on a high-carbohydrate, low fat diet
T1 sequence (P13516 1-355): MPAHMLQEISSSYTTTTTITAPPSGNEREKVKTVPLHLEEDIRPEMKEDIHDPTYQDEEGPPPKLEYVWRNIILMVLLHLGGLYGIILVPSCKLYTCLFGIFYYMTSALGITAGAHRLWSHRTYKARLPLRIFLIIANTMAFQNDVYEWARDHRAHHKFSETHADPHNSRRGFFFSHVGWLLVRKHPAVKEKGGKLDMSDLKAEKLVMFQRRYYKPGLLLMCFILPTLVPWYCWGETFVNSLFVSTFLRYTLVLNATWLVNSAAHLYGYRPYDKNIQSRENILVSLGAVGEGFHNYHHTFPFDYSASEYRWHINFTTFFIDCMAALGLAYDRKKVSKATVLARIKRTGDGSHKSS
From the text: The identification of compounds of the invention as SCD inhibitors was readily accomplished using the SCD enzyme and microsomal assay procedure described in Shanklin J. and Summerville C., Proc. Natl. Acad. Sci. USA (1991), Vol. 88, pp. 2510-2514.
Measuring Stearoyl-CoA Desaturase Inhibition Activity of a Test Compound Using Mouse Liver Microsomes
The identification of compounds of the invention as SCD inhibitors was readily accomplished using the SCD microsomal assay procedure described in Shanklin J. and Summerville C., Proc. Natl. Acad. Sci. USA (1991), Vol. 88, pp. 2510-2514.
Male ICR outbread mice, on a high-carbohydrate, low fat diet, under light halothane (15% in mineral oil) anesthesia are sacrificed by exsanguination during periods of high enzyme activity. Livers are immediately rinsed with cold 0.9% NaCl solution, weighed and minced with scissors. All procedures are performed at 4° C. unless specified otherwise. Livers are homogenized in a solution (1/3 w/v) containing 0.25 M sucrose, 62 mM potassium phosphate buffer (pH 7.0), 0.15 M KCl, 15 mM N-acetyleysteine, 5 mM MgCl2, and 0.1 mM EDTA using 4 strokes of a Potter-Elvehjem tissue homogenizer. The homogenate is centrifuged at 10,400×g for 20 min to eliminate mitochondria and cellular debris. The supernatant is filtered through a 3-layer cheesecloth and centrifuged at 105,000×g for 60 min. The microsomal pellet is gently resuspended in the same homogenization solution with a small glass/teflon homogenizer and stored at −70° C. The absence of mitochondrial contamination is enzymatically assessed. The protein concentration is measured using bovine serum albumin as the standard.
Desaturase activity is measured as the release of ^3H2O from [9,10-^3H]stearoyl-CoA. Reactions per assay point conditions are as follows: 2 μL 1.5 mM stearoyl-CoA, 0.25 μL 1 mCi/mL ^3H stearoyl CoA, 10 μL 20 mM NADH, 36.75 μL 0.1 M PK buffer (K2HPO4/NaH2PO4, pH 7.2). The test compound or control solution is added in a 1 μL volume. Reactions are started by adding 50 μL of microsomes (1.25 mg/mL). The plates are mixed and after 15 min incubation on a heating block (25° C.), the reactions are stopped by the addition of 10 μL 60% PCA. An aliquot of 100 μL is then transferred to a filter plate pretreated with charcoal and the plate centrifuged at 4000 rpm for 1 minute. The flow through containing the ^3H2O released by the SCD1 desaturation reaction is added to scintillation fluid and the radioactivity measured in a Packard TopCount. The data is analysed to identify the IC50 for test compounds and reference compounds. […] The activity was defined in terms of % SCD enzyme activity remaining at the desired concentration of the test compound or as the IC50 concentration. The IC50 (affinity) of the example compounds toward the stearoyl-CoA desaturase is comprised between around […] and 0.0001 μM or between around 5 μM and 0.0001 μM or between around 1 μM and 0.0001 μM.

In the case of `Cc1nc(-n2ccn(Cc3ccc(C(F)(F)F)cc3)c2=O)sc1C(=O)NCc1cccnc1` [Example 17.3, 4-methyl-2-(2-oxo-3-(4-(trifluoromethyl)benzyl)-2,3-dihydro-1H-imidazol-1-yl)-N-(pyridin-3-ylmethyl)thiazole-5-carboxamide], the IC50 [1] is reported as 0.012 µM and the melting point is reported as 163 to 164 °C.

`Cc1nc(-n2cnn(CC(=O)Nc3ccc(Cl)cc3)c2=O)sc1C(=O)NCc1cccnc1` [Example 19.10, 2-(1-(2-(4-chlorophenylamino)-2-oxoethyl)-5-oxo-1H-1,2,4-triazol-4(5H)-yl)-4-methyl-N-(pyridin-3-ylmethyl)thiazole-5-carboxamide] gave an IC50 [1] of 0.577 µM and a melting point of 255 to 256 °C.

Work on `CCN1CCN(c2nc(C)c(C(=O)NCc3cccnc3)s2)C1=O` [Example 9.39, 2-(3-ethyl-2-oxoimidazolidin-1-yl)-4-methyl-N-(pyridin-3-ylmethyl)thiazole-5-carboxamide] yielded an IC50 [1] of 0.124 µM and a melting point of 163 to 164 °C.

For `Cc1nc(N2CCN(Cc3ccccn3)C2=O)sc1C(=O)NCc1cccnc1` [Example 32.8, 4-methyl-2-(2-oxo-3-(pyridin-2-ylmethyl)imidazolidin-1-yl)-N-(pyridin-3-ylmethyl)thiazole-5-carboxamide], the IC50 [1] was 0.267 µM and the melting point was 58 to 61 °C.
